Laboratory results published in patent US6369066B1, “Substituted 1,3-oxathiolanes with antiviral properties” (BioChem Pharma, Inc., priority 1990, dated 2002).
In brackets after ≈: the same amount, converted by molar mass. Read-outs that look alike come from different tables or passages of the source.

How the values were obtained:
Assay type in all cases: cell-based
[1] = test system: H9; test: Cell culture inhibitory dose (CCID50) in H9; conditions: cell counting, trypan blue exclusion, 7 days post drug treatment
Protocol: (§1) Evaluation of Cell Culture Inhibitory Dose (CCID50)
(§2) Cell growth was determined by cell counting and viability by trypan blue exclusion 7 days post drug treatment. CCID50 is expressed as the drug concentration which inhibits 50% of cell growth.

[2] = test system: HTLV-IIIb; test: HIV-1 acutely infected cell lines, p24 antigen levels; conditions: p24 antigen at day 6; for ID50 CEM: CEM cells infected with HTLV-IIIb; for ID50 H9: H9 cells infected with HTLV-IIIb; for ID50 Jurkat: Jurkat cells infected with HTLV-IIIb; for ID50 MT-4: MT-4 cells infected with HTLV-IIIb; for ID50 U937: U937 cells infected with HTLV-IIIb
Protocol: Determination of IC50 ([…]) in HIV-1 Acutely Infected Cell Lines in the Presence of Differet Antiviral Compounds
Various cell lines were infected with HTLV-IIIb (TCID50=200) and then cultured with various concentrations of drug. IC50 was determined by measuring p24 antigen levels in the supernatant of cultures at day 6 of infection.

[3] = test system: Jurkat; test: Cell culture inhibitory dose (CCID50) in Jurkat; conditions: cell counting, trypan blue exclusion, 7 days post drug treatment
Protocol: as §1, §2

[4] = test system: HIV-1 (HTLV-IIIB); test: CBM assay, IC50 from RT levels in culture fluids; conditions: Human immunodeficiency virus 1
Protocol: Assays on cord blood mononuclear cells were done substantially as described in Gu et al., J. Virol. (1992), 66:7128-7135.
(§3) In short, viruses (HTLV-IIIB) that had initially been grown on MT-4 cells were passaged onto phytohemaglutinin-prestimulated cord blood mononuclear cells (CBM). For subsequent analysis, samples of CBM (5×10^5 cells per mL) were pretreated with various concentrations of the different compounds for 4 h and were then inoculated with CBL-grown HIV-1 at a multiplicity of infection of 1.0 in the concentration of the compound used for the pretreatment. Fresh medium, including the appropriate concentration of the compound was added three times weekly, and fresh phytohemaglutinin-prestimulated CBM (5×10^5 cells per mL) were added at 2-day intervals. The calculation of IC50 was determined on the basis of RT levels in culture fluids as described in Gao et al., (1992), J. Virol. 66: 12-19.

[5] = test system: CBMCs; test: Cell culture inhibitory dose (CCID50) in CBMCs; conditions: cell counting, trypan blue exclusion, 7 days post drug treatment
Protocol: as §1, §2

[6] = test system: U937; test: Cell culture inhibitory dose (CCID50) in U937; conditions: cell counting, trypan blue exclusion, 7 days post drug treatment
Protocol: as §1, §2

[7] = test system: HIV-1 IIIB; test: IC50 in CBMCs with HIV-1 isolate IIIB
Protocol: as §3
(§4) Determination of IC50 (μM) in Different Mutated Isolates of HIV-1 in the Presence of Different Antiviral Compounds
(§5) The procedure is similar to the procedure used in the CBM assay, with the exception that constructed virus and construted mutated virus were used.

[8] = test system: HIV-1 strain RF; test: Formazan (MTT) assay on MT-4 cells, anti-HIV-1 antiviral activity; conditions: Human immunodeficiency virus 1, MT4, 168 h, MT-4 cells infected with HIV-1 strain RF, 7 days, read-out: IC50 (50% anti-viral dose, ID 50%)
Protocol: Formazan Assay on MT-4 and 3TC™-Resistant Cell Lines
(§6) Anti-HIV-1 antiviral activity was determined in MT-4 calls and MT-4 cells that have been made resistant to 3TC™. A suspension of cells (approximately 10^6 cells/ml) in RPMI 1640 growth medium was infected with HIV-1 strain RF at a M.O.I. of 10^−3 infectious units/cell. An uninfected cell suspension was prepared in parallel to evaluate drug-induced cytotoxicity. The two suspensions were incubated for 90 minutes at room temperature. Test compounds were serially diluted in 10-fold decrements from 100 μg/ml to 0.01 μg/ml (final concentrations in two 96 well microtitre plates. 20 μl of infected cell suspension were inoculated into each well of one of the plates (anti-viral), while 20 μl of uninfected cell suspension were added to each well of the second plate (cytotoxicity). The plates were then incubated for 7 days at 37° C. After incubation, 10 μl of 3-(4,5-dimethylthiazol-2-yl)-2,5-diphenyltetrazolium bromide (MTT) at 20 mg/ml was added to all wells and the plates incubated for a further 90 minutes at 37° C.
150 μl of 10% (v/v) alcoholic Triton X-100 was then added and the cells resuspended. After 15 minutes at room temperature, the plates were analyzed in a Multiskan MC reader at 405 nm. Conversion of yellow MMT to its formazan derivative is maximum in uninfected cells, and absent in untreated infected cells. The optical density values for the cytotoxicity controls and the antiviral test wells were graphically plotted and the dose of compounds required to inhibit the conversion of MMT to 50% of the untreated uninfected controls was calculated. In this way, both the 50% cytotoxic dose (CD 50%) and the 50% anti-viral dose (ID 50%) can be calculated.

[9] = test system: HIV-1 HXB2D; test: IC50 in CBMCs with constructed virus HXB2D
Protocol: as §3, §4, §5
(§7) The constructed virus HXB2D-65 correspond to the ddC resistance mutation and the constructed virus HXB2D-184 correspond to the 3TC™ and FTC resistance mutation.

[10] = test system: MT-4; test: Cell culture inhibitory dose (CCID50) in MT-4; conditions: cell counting, trypan blue exclusion, 7 days post drug treatment
Protocol: as §1, §2

[11] = test system: HIV-1 HXB2D-184 M→V (3TC™ and FTC resistance mutation); test: IC50 in CBMCs with constructed mutated virus HXB2D-184
Protocol: as §3, §4, §5, §7

[12] = test system: CEM; test: Cell culture inhibitory dose (CCID50) in CEM; conditions: cell counting, trypan blue exclusion, 7 days post drug treatment
Protocol: as §1, §2

[13] = test system: HIV-1 HXB2D-65 K→R (ddC resistance mutation); test: IC50 in CBMCs with constructed mutated virus HXB2D-65
Protocol: as §3, §4, §5, §7

[14] = test system: 2.2.15 cells (Hep G2 cells transfected with human hepatitis B virus genomic DNA); test: Cytotoxicity (CD50) reported with HBV assay; conditions: HBV table
Protocol: (§8) The method used for this test is described in detail in Korba et al., Antiviral research 15, 217-228 (1992) which is shortly described as follows: Hep G2 cells transfected with human hepatitis B virus genomic DNA (2.2.15 cells) were grown and maintained in RPMI-1640 culture medium containing %5 foetal bovine serum, 2 mM glutamine and 50 μg/ml gentamicin sulphate, and checked routinely for G418 resistance. Cultures of 2.2.15 cells were grown to confluence in 24 well tissue culture plates and maintained for 2 to 3 days in that condition prior to drug treatment.

[15] = test system: MT-4 cells; test: Formazan (MTT) assay, drug-induced cytotoxicity in uninfected MT-4 cells; conditions: human, 7 days
Protocol: as §6, with “A suspension of cells (approximately 10^6 cells/ml) in RPMI 1640 growth medium was infected with HIV-1 strain RF at a M.O.I. of 10^−3 infectious units/cell.” left out
150 μl of 10% (v/v) alcoholic Triton X-100 was then added and the cells resuspended. After 15 minutes at room temperature, the plates were analyzed in a Multiskan MC reader at 405 nm. […] The optical density values for the cytotoxicity controls and the antiviral test wells were graphically plotted and the dose of compounds required to inhibit the conversion of MMT to 50% of the untreated uninfected controls was calculated.

[16] = test system: human hepatitis B virus; test: Inhibition of human hepatitis B virus in 2.2.15 cells, extracellular HBV DNA; conditions: 10 day treatment
Protocol: Inhibition of Human Hepatitis B Virus.
as §8
Drugs were dissolved in sterile water or sterile 50% DMSO in water at concentrations 100-fold higher than the higher test concentration. These solutions were diluted as needed in culture medium.
The culture medium on the confluent cells was changed 24 hours prior to exposure to test compounds. During the 10 day treatment, the culture medium was changed daily. After 10 days of the treatment, the culture medium was collected and frozen at −70° C. for HBV DNA analysis. […]
A purified 3.2 kb EcoR1 HBV DNA fragment was labeled with [^32p]dCTP by nick translation and used as a probe to detect HBV DNA on the dot-blot by DNA hybridization. After washing, the hybridized blot was dried and ^32p was quantified using an Ambis beta scanner.

[17] = test system: cord blood mononuclear cells (CBM); test: Cytotoxicity (CD50) reported with CBM assay
Protocol: Assays on cord blood mononuclear cells were done substantially as described in Gu et al., J. Virol.
as §3, with “The calculation of IC50 was determined on the basis of RT levels in culture fluids as described in Gao et al., (1992), J. Virol.” left out

[18] = Human immunodeficiency virus 1, read-out: IC50 HXB2D
[19] = Human immunodeficiency virus 1, read-out: IC50 HXB2D-184 M→V
[20] = Human immunodeficiency virus 1, read-out: IC50 HXB2D-65 K→R

Structure (SMILES)	CCID50 H9 [1]	ID50 CEM [2]	ID50 H9 [2]	ID50 Jurkat [2]	ID50 MT-4 [2]	ID50 U937 [2]	CCID50 Jurkat [3]	IC50 [4]	CCID50 CBMCs [5]	CCID50 U937 [6]	IC50 ([7]; Human immunodeficiency virus 1)	IC50 [8]	IC50 [9, 18]	CCID50 MT-4 [10]	IC50 [11, 19]	CCID50 CEM [12]	IC50 [13, 20]	CD50 (50% cytotoxic dose) [15]	CD50 [17]	further results
Cc1cn([C@H]2C[C@H](N=[N+]=[N-])[C@@H](CO)O2)c(=O)[nH]c1=O [AZT, 3′-azido-3′-deoxythymidine, reference compound]	200 µM	0.01 µg/mL (≈ 0.0374 µM)	0.07 µg/mL (≈ 0.262 µM)	0.01 µg/mL (≈ 0.0374 µM)	0.005 µg/mL (≈ 0.0187 µM)	0.04 µg/mL (≈ 0.15 µM)	>500 µM	< 0.002 µg/mL	45 µM	110 µM	2 nM	0.01 µg/mL (≈ 0.0374 µM)	2 nM	110 µM	1 nM	500 µM	1 nM	–	–	–
Nc1ccn(C2COC(CO)S2)c(=O)n1 (stereo not drawn) [BCH-270, Cis- and Trans-2-hydroxymethyl-4-(cytosin-1′-yl)-1,3-oxathiolane]	–	–	–	–	–	–	–	0.03 µg/mL (≈ 0.131 µM)	–	–	–	4 µg/mL (≈ 17.4 µM)	–	–	–	–	–	>100 µg/mL	>23 µg/mL	CD50 (HBV) [14]: >10 µg/mL; ID50 (HBV) [16]: 7.5 µg/mL (≈ 32.7 µM)
Nc1ccn([C@@H]2CS[C@H](CO)O2)c(=O)n1 [3TC ™, reference compound]	–	–	–	–	–	–	–	–	–	–	–	–	–	–	–	–	–	–	–	IC50 [7]: 10 nM; IC50 ([9]; CBMCs, constructed virus HXB2D, read-out: IC50 HXB2D): 80 nM; IC50 ([11]; CBMCs, 3TC™ and FTC resistance mutation, read-out: IC50 HXB2D-184 M→V): 42500 nM; IC50 ([13]; CBMCs, ddC resistance mutation, read-out: IC50 HXB2D-65 K→R): 125 nM
Nc1ccn([C@H]2CO[C@@H](CO)S2)c(=O)n1 [Compound #1, 2R-hydroxymethyl-4R-(cytosin-1′-yl)-1,3-oxathiolane]	>500 µM	0.2 µg/mL (≈ 0.872 µM)	0.3 µg/mL (≈ 1.31 µM)	3.0 µg/mL (≈ 13.1 µM)	2.8 µg/mL (≈ 12.2 µM)	0.4 µg/mL (≈ 1.74 µM)	450 µM	0.05 to 1.22 µg/mL (≈ 0.218 to 5.32 µM)	>500 µM	>500 µM	220 nM	13 µg/mL (≈ 56.7 µM)	1000 nM	>500 µM	530 nM	>500 µM	2500 nM	>100 µg/mL	>23 µg/mL	–
